Laboratory results as given in ChEMBL document CHEMBL2440076, “New triarylpyrazoles as broad-spectrum anticancer agents: design, synthesis, and biological evaluation” (Eur J Med Chem, 2013).

Key:
SR = experiment: Growth inhibition of human SR cells after 48 hrs by sulforhodamine B assay; format: functional; details: for CC50: read-out: LC50 (the source's name)
DU-145 = experiment: Growth inhibition of human DU145 cells after 48 hrs by sulforhodamine B assay; format: functional; details: DU-145, 48 h
NCI-H23 = experiment: Growth inhibition of human NCI-H23 cells after 48 hrs by sulforhodamine B assay; format: functional; details: NCI-H23, 48 h
[1] = Growth inhibition of human Hs 578T cells assessed as cell growth at 10 uM after 48 hrs by sulforhodamine B assay; format: functional; details: read-out: Activity
UACC-257 = experiment: Growth inhibition of human UACC257 cells after 48 hrs by sulforhodamine B assay; format: functional; details: UACC-257, 48 h; for CC50: read-out: LC50 (the source's name)
IGROV-1 = experiment: Growth inhibition of human IGROV1 cells assessed as cell growth at 10 uM after 48 hrs by sulforhodamine B assay; format: functional; details: IGROV-1, 48 h, read-out: Activity
MDA-MB-468 = experiment: Growth inhibition of human MDA-MB-468 cells assessed as cell growth at 10 uM after 48 hrs by sulforhodamine B assay; format: functional; details: MDA-MB-468, 48 h, read-out: Activity
HCT-116 = experiment: Growth inhibition of human HCT116 cells after 48 hrs by sulforhodamine B assay; format: functional; details: HCT-116, 48 h; for CC50: read-out: LC50 (the source's name)
CCRF-CEM = experiment: Growth inhibition of human CCRF-CEM cells assessed as cell growth at 10 uM after 48 hrs by sulforhodamine B assay; format: functional; details: read-out: Activity
PC-3 = experiment: Growth inhibition of human PC3 cells after 48 hrs by sulforhodamine B assay; format: functional, cell-based; details: PC-3, 48 h; for CC50: read-out: LC50 (the source's name)
OVCAR-4 = experiment: Growth inhibition of human OVCAR4 cells after 48 hrs by sulforhodamine B assay; format: functional; details: OVCAR-4, 48 h
UO-31 = experiment: Growth inhibition of human UO31 cells after 48 hrs by sulforhodamine B assay; format: functional; details: UO-31, 48 h; for CC50: read-out: LC50 (the source's name)
TK-10 = experiment: Growth inhibition of human TK10 cells assessed as cell growth at 10 uM after 48 hrs by sulforhodamine B assay; format: functional; details: TK-10, 48 h, read-out: Activity
LOX IMVI = experiment: Growth inhibition of human LOXIMVI cells assessed as cell growth at 10 uM after 48 hrs by sulforhodamine B assay; format: functional; details: read-out: Activity
MOLT-4 [2] = experiment: Growth inhibition of human MOLT4 cells after 48 hrs by sulforhodamine B assay; format: functional; details: MOLT-4, 48 h; for CC50: read-out: LC50 (the source's name)
M14 = experiment: Growth inhibition of human M14 cells after 48 hrs by sulforhodamine B assay; format: functional; details: M14, 48 h
HCT-15 [3] = experiment: Growth inhibition of human HCT15 cells assessed as cell growth at 10 uM after 48 hrs by sulforhodamine B assay; format: functional; details: HCT-15, 48 h, read-out: Activity
OVCAR-5 = experiment: Growth inhibition of human OVCAR5 cells after 48 hrs by sulforhodamine B assay; format: functional; details: OVCAR-5, 48 h
SNB-19 = experiment: Growth inhibition of human SNB19 cells after 48 hrs by sulforhodamine B assay; format: functional; details: SNB-19, 48 h
OVCAR-3 = experiment: Growth inhibition of human OVCAR3 cells assessed as cell growth at 10 uM after 48 hrs by sulforhodamine B assay; format: functional; details: OVCAR-3, 48 h, read-out: Activity
HCT-15 [4] = experiment: Growth inhibition of human HCT15 cells after 48 hrs by sulforhodamine B assay; format: functional; details: HCT-15, 48 h
SK-MEL-5 [5] = experiment: Growth inhibition of human SK-MEL-5 cells assessed as cell growth at 10 uM after 48 hrs by sulforhodamine B assay; format: functional; details: SK-MEL-5, 48 h, read-out: Activity
MOLT-4 [6] = experiment: Growth inhibition of human MOLT4 cells assessed as cell growth at 10 uM after 48 hrs by sulforhodamine B assay; format: functional; details: MOLT-4, 48 h, read-out: Activity
SN12C = experiment: Growth inhibition of human SN12C cells after 48 hrs by sulforhodamine B assay; format: functional; details: for CC50: read-out: LC50 (the source's name)
SK-MEL-5 [7] = experiment: Growth inhibition of human SK-MEL-5 cells after 48 hrs by sulforhodamine B assay; format: functional; details: SK-MEL-5, 48 h
RPMI-8226 = experiment: Growth inhibition of human RPMI8226 cells assessed as cell growth at 10 uM after 48 hrs by sulforhodamine B assay; format: functional; details: RPMI-8226, 48 h, read-out: Activity
RXF 393 = experiment: Growth inhibition of human RXF393 cells after 48 hrs by sulforhodamine B assay; format: functional; details: RXF 393, 48 h
MDA-MB-435 = experiment: Growth inhibition of human MDA-MB-435 cells assessed as cell growth at 10 uM after 48 hrs by sulforhodamine B assay; format: functional; details: MDA-MB-435, 48 h, read-out: Activity
SF-268 = experiment: Growth inhibition of human SF268 cells assessed as cell growth at 10 uM after 48 hrs by sulforhodamine B assay; format: functional; details: SF-268, 48 h, read-out: Activity
NCI-H460 = experiment: Growth inhibition of human NCI-H460 cells assessed as cell growth at 10 uM after 48 hrs by sulforhodamine B assay; format: functional; details: NCI-H460, 48 h, read-out: Activity
KM12 = experiment: Growth inhibition of human KM12 cells after 48 hrs by sulforhodamine B assay; format: functional, cell-based; details: KM12, 48 h; for CC50: read-out: LC50 (the source's name)
T47D = experiment: Growth inhibition of human T47D cells assessed as cell growth at 10 uM after 48 hrs by sulforhodamine B assay; format: functional; details: read-out: Activity
SF-539 = experiment: Growth inhibition of human SF539 cells assessed as cell growth at 10 uM after 48 hrs by sulforhodamine B assay; format: functional; details: SF-539, 48 h, read-out: Activity
NCI-H322M = experiment: Growth inhibition of human NCI-H322M cells assessed as cell growth at 10 uM after 48 hrs by sulforhodamine B assay; format: functional; details: read-out: Activity

## COc1cc(-c2nn(-c3cccc(NC(=O)Nc4cc(C(F)(F)F)cc(C(F)(F)F)c4)c3)cc2-c2ccncc2)ccc1Cl
SR
  GI50: 1080 nM
  TGI: 3970 nM
  CC50: > 50000 nM
DU-145
  GI50: 1310 nM
  LC50: 21100 nM
  TGI: 5040 nM
NCI-H23
  GI50: 1090 nM
  LC50: 29600 nM
  TGI: 3340 nM
[1]
  growth at 10 µM: -25.8%
UACC-257
  GI50: 916 nM
  TGI: 2350 nM
  CC50: 26200 nM
IGROV-1
  growth at 10 µM: 19.9%
MDA-MB-468
  growth at 10 µM: -25.4%
HCT-116
  GI50: 643 nM
  TGI: 1760 nM
  CC50: 4830 nM
CCRF-CEM
  growth at 10 µM: -27.3%
PC-3
  GI50: 250 nM
  IC50: 250 nM
  TGI: 2070 nM
  CC50: > 50000 nM
OVCAR-4
  GI50: 1120 nM
  LC50 (concentration killing 50% of cells): > 50000 nM
  TGI: 9640 nM
UO-31
  GI50: 600 nM
  TGI: 1280 nM
  CC50: 2730 nM
TK-10
  growth at 10 µM: -26.7%
LOX IMVI
  growth at 10 µM: -91.3%
MOLT-4 [2]
  GI50: 1080 nM
  TGI: 4480 nM
  CC50: > 50000 nM
M14
  GI50: 808 nM
  LC50 (concentration killing 50% of cells): > 50000 nM
  TGI: 2550 nM
HCT-15 [3]
  growth at 10 µM: 2.59%
OVCAR-5
  GI50: 937 nM
  LC50 (concentration killing 50% of cells): 12000 nM
  TGI: 2470 nM
SNB-19
  GI50: 711 nM
  LC50 (concentration killing 50% of cells): > 50000 nM
  TGI: 3670 nM
OVCAR-3
  growth at 10 µM: -57.9%
HCT-15 [4]
  GI50: 617 nM
  LC50: 4330 nM
  TGI: 1640 nM
SK-MEL-5 [5]
  growth at 10 µM: -96.1%
MOLT-4 [6]
  growth at 10 µM: -24.5%
SN12C
  GI50: 932 nM
  TGI: 3320 nM
  CC50: > 50000 nM
SK-MEL-5 [7]
  GI50: 694 nM
  LC50 (concentration killing 50% of cells): 2670 nM
  TGI: 1360 nM
RPMI-8226
  growth at 10 µM: -11.7%
RXF 393
  GI50: 869 nM
  LC50 (concentration killing 50% of cells): 4900 nM
  TGI: 2060 nM
MDA-MB-435
  growth at 10 µM: -58.3%
SF-268
  growth at 10 µM: -46.3%
NCI-H460
  growth at 10 µM: -49.7%
KM12
  GI50: 531 nM
  IC50: 530 nM
  TGI: 1340 nM
  CC50: 3390 nM
T47D
  growth at 10 µM: 4.45%
SF-539
  growth at 10 µM: -53.5%
NCI-H322M
  growth at 10 µM: 26.1%

## COc1cc(-c2nn(-c3cccc(NC(=O)Nc4ccc(Cl)c(C(F)(F)F)c4)c3)cc2-c2ccncc2)ccc1Cl
SR
  GI50: 884 nM
  TGI: 2480 nM
  CC50: > 32500 nM
DU-145
  GI50: 1500 nM
  LC50: > 32500 nM
  TGI: > 32500 nM
NCI-H23
  GI50: 1310 nM
  LC50: > 32500 nM
  TGI: 8030 nM
[1]
  growth at 10 µM: 2.21%
UACC-257
  GI50: 1210 nM
  TGI: 6030 nM
  CC50: 29200 nM
IGROV-1
  growth at 10 µM: 25.6%
MDA-MB-468
  growth at 10 µM: -7.22%
HCT-116
  GI50: 1170 nM
  TGI: 4560 nM
  CC50: 21500 nM
CCRF-CEM
  growth at 10 µM: -8.04%
PC-3
  GI50: 690 nM
  IC50: 690 nM
  TGI: 2450 nM
  CC50: > 32500 nM
OVCAR-4
  GI50: 1290 nM
  LC50 (concentration killing 50% of cells): > 32500 nM
  TGI: 25600 nM
UO-31
  GI50: 865 nM
  TGI: 4100 nM
  CC50: > 32500 nM
TK-10
  growth at 10 µM: 12.6%
LOX IMVI
  growth at 10 µM: 1.06%
MOLT-4 [2]
  GI50: 1020 nM
  TGI: 7960 nM
  CC50: > 32500 nM
M14
  GI50: 1080 nM
  LC50 (concentration killing 50% of cells): 19100 nM
  TGI: 3710 nM
HCT-15 [3]
  growth at 10 µM: 9.91%
OVCAR-5
  GI50: 3090 nM
  LC50 (concentration killing 50% of cells): > 32500 nM
  TGI: 11000 nM
SNB-19
  GI50: 1240 nM
  LC50 (concentration killing 50% of cells): > 32500 nM
  TGI: 9240 nM
OVCAR-3
  growth at 10 µM: -12.4%
HCT-15 [4]
  GI50: 1230 nM
  LC50: > 32500 nM
  TGI: 7050 nM
SK-MEL-5 [5]
  growth at 10 µM: -65.3%
MOLT-4 [6]
  growth at 10 µM: -2.38%
SN12C
  GI50: 1140 nM
  TGI: 9230 nM
  CC50: > 32500 nM
SK-MEL-5 [7]
  GI50: 818 nM
  LC50 (concentration killing 50% of cells): 10400 nM
  TGI: 2890 nM
RPMI-8226
  growth at 10 µM: -8.66%
RXF 393
  GI50: 1180 nM
  LC50 (concentration killing 50% of cells): > 32500 nM
  TGI: 6290 nM
MDA-MB-435
  growth at 10 µM: -52.3%
SF-268
  growth at 10 µM: 13.8%
NCI-H460
  growth at 10 µM: 1.7%
KM12
  GI50: 1060 nM
  TGI: 3920 nM
  CC50: 14900 nM
T47D
  growth at 10 µM: 0.62%
SF-539
  growth at 10 µM: 6.56%
NCI-H322M
  growth at 10 µM: 32.3%
